Columns and labels:
Bacterial vaginosis (BV) = settings: following metronidazole treatment of BV; cited from earlier work
E. coli [1] = assay: Sterilization of E. coli-inoculated catheter sections by nitric oxide dosing (CFU count); type: cell-based, Escherichia coli; settings: 20,000 ppm NO, 30 cc/minutes
Method: Six-mm diameter Folysil® silicone Foley catheters, (catalog no. AA6118; Coloplast® Corp. Minneapolis, Minn., USA) (Folysil® and Coloplast® are registered trademarks of Coloplast A/S, Humlebaek, Denmark) were aseptically cut into 2-cm sections and inoculated by immersion in 2 ml of one of 10^3 CFU/ml, 10^5CFU/ml, or 10^8 CFU/ml E. coli. inocula for 30 minutes. Inoculated catheter sections were subsequently dosed with 20,000 parts per million of nitric oxide (at a flow rate of 30 cc/minutes) during 1, 5, 15, 30, 60 or 120 minutes, using the general procedure I described hereinabove. Control catheter sections were not impregnated with nitric oxide, but were stored in sterile sealed vials.
The nitric oxide-treated and untreated catheter segments were then immersed separately in 2 ml media and then incubated for 8 hours at 37° C. Aliquots of the incubation media were plated and numbers of CFU counted. Bacterial loads were calculated as CFU per ml.
Foley catheters, (catalog no. AA6118; Coloplast® Corp. Minneapolis, Minn., USA) is aseptically cut into 2-cm sections and inoculated by immersion in 2 ml of one of 10^3 CFU/ml, 10^5 CFU/ml, or 10^8 CFU/ml E. coli. inocula for 30 minutes. Inoculated catheter sections are subsequently dosed with nitric oxide using the general procedure II described hereinabove. Control catheter sections are not impregnated with nitric oxide, but are stored in sterile sealed vials.
The nitric oxide-treated and untreated catheter segments are then immersed separately in 2 ml media and incubated for 8 hours at 37° C. Aliquots of the incubation media are plated and numbers of CFU counted. Bacterial loads are calculated as CFU per ml.

E. coli [2] = assay: Biofilm sterilization by gaseous NO; type: cell-based, Escherichia coli; settings: 20,000 ppm NO, 1 liter/minute, 5, 10, 30, 60 or 120 minutes
Method: (§1) A biofilm was established in each well of a 6-well plate and the time of treatment with nitric oxide gas for eradication of the biofilm was tested using the biofilm formation assay described hereinabove.
(§2) Briefly, 3 ml of LB media were placed in each well of 12 6-well plates and then each well was inoculated with 10 μl of stock bacteria (E. Coli or A. baumanii (6 plates for each bacterial type). Plates were incubated with agitation for 5 days at 37° C. to establish a biofilm in each well. The media was removed and each well washed twice with sterile saline.
(§3) Plates with established biofilms (one for each bacterial type) were treated with nitric oxide (20,000 ppm, 1 liter/minute flow rate) for 5, 10, 30, 60 or 120 minutes. Control plates were kept at room temperature, without treatment.
(§4) Three of the six wells for each plate were stained with crystal violet to confirm biofilm formation. The biofilm in the remaining 3 wells of each plate was re-suspended (with 30 seconds sonication) in 5 ml sterile saline. Aliquots of 1, 10 and 100 μl of each sample were plated in compartmentalized (3-section) petri plates.

A. baumanii = assay: Biofilm sterilization by gaseous NO; type: cell-based, Acinetobacter baumanii; settings: 20,000 ppm NO, 1 liter/minute, 5, 10, 30, 60 or 120 minutes
Method: as §1, §2, §3, §4

Staphylococcus aureus = settings: multiple 30 minute treatments of 160 ppm nitric oxide; cited from earlier work
E. coli [3] = settings: multiple 30 minute treatments of 160 ppm nitric oxide; cited from earlier work
Pseudomonas aeruginosa = settings: multiple 30 minute treatments of 160 ppm nitric oxide; cited from earlier work

Row | SMILES | cure rate (Bacterial vaginosis (BV)) [%] | treatment time after which the catheter segments were sterilized (E. coli [1]; 10^3 bacterial stock) [min] | treatment time after which the catheter segments were sterilized (E. coli [1]; 10^5 bacterial stock) [min] | treatment time after which the catheter segments were sterilized (E. coli [1]; 10^8 bacterial stock) [min] | colonies from re-suspended established biofilm (E. coli [2]) | colonies from re-suspended established biofilm (A. baumanii) | decrease in the bacterial load (Staphylococcus aureus) | decrease in the bacterial load (E. coli [3]) | decrease in the bacterial load (Pseudomonas aeruginosa)
1 | Cc1ncc([N+](=O)[O-])n1CCO [metronidazole] | 61 |  |  |  |  |  |  |  | 
2 | [N]=O [nitric oxide] |  | 1 | 15 | 15 | no colonies were observed | no colonies were observed | > 5 log 10 colony forming unit per milliliter (CFU/ml) | > 5 log 10 colony forming unit per milliliter (CFU/ml) | > 5 log 10 colony forming unit per milliliter (CFU/ml)
